For experiment [1], the system named is Aβ40 in conditioned medium of cells stably expressing Amyloid Precursor Protein (APP). Kind of experiment: In vitro BACE cell-based assay (HEK cell assay), Aβ40 sandwich ELISA. Summed up:
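Cells stably expressing APP received 10-point compound dilutions (top 100 μM or 10 μM; 0.1% DMSO) for 24 h. Secreted Aβ40 was quantified by sandwich ELISA (pAb40 capture, biotinylated 6E10 detection, europium time-resolved fluorescence). IC50 was derived from percent inhibition versus concentration.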
A general note: ELISA stands for enzyme-linked immunosorbent assay.

Experiment [2] concerns the target BACE 1 (Beta Secretase enzyme) (Homo sapiens, UniProt P56817). Briefly: In vitro enzymatic BACE FRET assay. The format is biochemical. Summed up:
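BACE activity read by FRET: peptide substrate (50 nM) carrying fluorophore and quencher across the cleavage site, incubated one hour in 0.05 M acetate pH 4.2, 10% DMSO final, 100 uM genapol. Tris addition raises pH to neutrality to stop the reaction before fluorescence is read.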

Where [3] appears, read: Homo sapiens, HEK293, 24 h, IC50 range symbols, Table 1, Aβ40, 24 h incubation, read-out: HEK cell assay.
The mark [4] stands for this setting: IC50 range symbols, Table 1, read-out: BACE 1 FRET assay.
Setting [5] is: bound stated, read-out: IC50 value in the FRET BACE enzyme assay.
[6] abbreviates: IC50 range symbols, Table 1, Aβ40, 24 h incubation, read-out: HEK cell assay.

Like-named read-outs stand apart in the source and are kept apart here.

BACE 1 (Beta Secretase enzyme), sequence (P56817 46-501, species assumed): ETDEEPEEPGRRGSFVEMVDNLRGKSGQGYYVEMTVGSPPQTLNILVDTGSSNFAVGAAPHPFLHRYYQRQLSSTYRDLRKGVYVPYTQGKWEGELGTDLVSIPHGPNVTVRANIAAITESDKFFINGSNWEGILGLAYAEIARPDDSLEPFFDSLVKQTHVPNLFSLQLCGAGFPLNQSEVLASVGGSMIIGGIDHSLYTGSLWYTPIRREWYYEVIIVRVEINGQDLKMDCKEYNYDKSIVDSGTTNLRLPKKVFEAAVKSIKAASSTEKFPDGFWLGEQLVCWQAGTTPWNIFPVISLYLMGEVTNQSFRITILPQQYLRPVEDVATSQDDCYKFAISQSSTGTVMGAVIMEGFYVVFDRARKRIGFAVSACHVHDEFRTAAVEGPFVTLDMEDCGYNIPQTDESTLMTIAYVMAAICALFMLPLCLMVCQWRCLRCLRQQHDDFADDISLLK

For `CC(Cc1cc2cc(-c3ncccc3Cl)ccc2nc1N)C(=O)NCCC(F)(F)F` (stereo not drawn) [Example 116, 3-(2-amino-6-(3-chloropyridin-2-yl)quinolin-3-yl)-2-methyl-N-(3,3,3-trifluoropropyl)propanamide], the IC50 was > 5000 nM in experiment [1] (setting [3]) and 1000 to 5000 nM in experiment [2] (setting [4]).

As for `CC(Cc1cc2cc(-c3ncccc3CCN(C)C)ccc2nc1N)C(=O)NCCC(C)(C)C` (stereo not drawn) [Example 127, 3-(2-amino-6-(3-(2-(dimethylamino)ethyl)pyridin-2-yl)quinolin-3-yl)-N-(3,3-dimethylbutyl)-2-methylpropanamide], the IC50 in experiment [1] (setting [3]) and in experiment [2] (setting [4]) was < 500 nM in each case.

On to `Cc1cccnc1-c1ccc2nc(N)c(CC(C)C(=O)NC[C@@H]3CCCOC3)cc2c1` (stereo partly drawn) [Example 89, 3-(2-amino-6-(3-methylpyridin-2-yl)quinolin-3-yl)-2-methyl-N-(((S)-tetrahydro-2H-pyran-3-yl)methyl)propanamide], for which the IC50 in experiment [1] (setting [3]) is 500 to 1000 nM; in experiment [2] (setting [4]) it was < 500 nM.

As for `Cc1ccccc1-c1ccc2nc(N)c(CC(C)C(=O)N[C@H](C)c3ccccc3OC(F)F)cc2c1` (stereo partly drawn) [Example 77, 3-(2-amino-6-o-tolylquinolin-3-yl)-N-((R)-1-(2-(difluoromethoxy)phenyl)ethyl)-2-methylpropanamide], the IC50 in experiment [1] (setting [3]) is 1000 to 5000 nM; in experiment [2] (setting [4]), < 500 nM.

`Cc1ccccc1-c1ccc2nc(N)c(C[C@@H](C)C(=O)NCc3ccncn3)cc2c1` [Example 84, (R)-3-(2-amino-6-o-tolylquinolin-3-yl)-2-methyl-N-(pyrimidin-4-ylmethyl)propanamide]: the IC50 in experiment [1] (setting [3]) is < 500 nM; in experiment [2] (setting [4]) it was < 500 nM; in experiment [2] (setting [5]), < 50 nM.

With `CC(Cc1cc2cc(-c3ccc(F)cc3Cl)ccc2nc1N)C(=O)NC1CCOC(C)(C)C1` (stereo not drawn) [Example 166, 3-(2-amino-6-(2-chloro-4-fluorophenyl)-3-quinolinyl)-N-(2,2-dimethyltetrahydro-2H-pyran-4-yl)-2-methylpropanamide], the IC50 in experiment [1] (setting [3]) was 1000 to 5000 nM; in experiment [2] (setting [4]), < 500 nM.

In the case of `Cc1ccccc1-c1ccc2nc(N)c(CCC(=O)Nc3ccccc3)cc2c1` [Example 25, 3-(2-amino-6-o-tolylquinolin-3-yl)-N-phenylpropanamide], the IC50 was 500 to 1000 nM in experiment [1] (setting [3]) and < 500 nM in experiment [2] (setting [4]).

Consider “3-(2-amino-6-(2-((2-methoxyphenyl)carbonyl)phenyl)-3-quinolinyl)-N-(2,2-dimethyltetrahydro-2H-pyran-4-yl)-2-methylpropanamide [Example 146]”, for which the IC50 in experiment [1] (setting [6]) and in experiment [2] (setting [4]) was < 500 nM in each case.

In the case of `CC(Cc1cc2cc(-c3ncccc3Cl)ccc2nc1N)C(=O)NC[C@H]1CCCCO1` (stereo partly drawn) [Example 83, 3-(2-amino-6-(3-chloropyridin-2-yl)quinolin-3-yl)-2-methyl-N-(((R)-tetrahydro-2H-pyran-2-yl)methyl)propanamide], the IC50 was 1000 to 5000 nM in experiment [1] (setting [3]) and < 500 nM in experiment [2] (setting [4]).

For `Cc1ccccc1-c1cc2cc(CCC(=O)NCCC(C)(C)C)c(N)nc2cn1` [Example 135, 3-(2-amino-6-o-tolyl-1,7-naphthyridin-3-yl)-N-(3,3-dimethylbutyl)propanamide], the values for the IC50 in experiment [1] (setting [3]), in experiment [2] (setting [4]) and in experiment [2] (setting [5]) were > 5000 nM, < 500 nM and < 50 nM, respectively.

On to “N-(2-methoxybenzyl)-3-(3-amino-7-o-tolylnaphthalen-2-yl)propanamide [Example 61]”, for which the IC50 in experiment [1] (setting [6]) is > 5000 nM; in experiment [2] (setting [4]), 1000 to 5000 nM.

On to `CC(C)c1ccccc1-c1ccc2nc(N)c(CCC(=O)NCC3CCCCC3)cc2c1` [Example 72, 3-(2-amino-6-(2-isopropylphenyl)quinolin-3-yl)-N-(cyclohexylmethyl)propanamide], for which the values for the IC50 in experiment [1] (setting [3]) and in experiment [2] (setting [4]) were > 5000 nM and < 500 nM, respectively.

As to `Cc1cccnc1-c1ccc2nc(N)c(CC(C)C(=O)NCCC3CC3)cc2c1` (stereo not drawn) [Example 111, 3-(2-amino-6-(3-methylpyridin-2-yl)quinolin-3-yl)-N-(2-cyclopropylethyl)-2-methylpropanamide], the IC50 in experiment [1] (setting [3]) is 1000 to 5000 nM; in experiment [2] (setting [4]) it was < 500 nM.

Turning to `Cc1ccccc1-c1ccc2nc(N)c(CCC(=O)NCCC3CC3)cc2c1` [Example 115, 3-(2-amino-6-o-tolylquinolin-3-yl)-N-(2-cyclopropylethyl)propanamide], the IC50 in experiment [1] (setting [3]) was 1000 to 5000 nM; in experiment [2] (setting [4]), < 500 nM.

As to `Cc1cccnc1-c1ccc2nc(N)c(CC(C)C(=O)NCCC3(C)CC3)cc2c1` (stereo not drawn) [Example 102, 3-(2-amino-6-(3-methylpyridin-2-yl)quinolin-3-yl)-2-methyl-N-(2-(1-methylcyclopropyl)ethyl)propanamide], the IC50 in experiment [1] (setting [3]) and in experiment [2] (setting [4]) was < 500 nM throughout.

As to `N#Cc1ccccc1-c1ccc2nc(N)c(CCC(=O)NCC3CCCCC3)cc2c1` [Example 41, 3-(2-amino-6-(2-cyanophenyl)quinolin-3-yl)-N-(cyclohexylmethyl)propanamide], the IC50 in experiment [1] (setting [3]) is 1000 to 5000 nM; in experiment [2] (setting [4]) it was < 500 nM.

On to `CNC(=O)C(C)Cc1cc2cc(-c3c(C)cccc3C(=O)N3CCCC3)ccc2nc1N` (stereo not drawn) [Example 148, 3-(2-Amino-6-(2-methyl-6-(pyrrolidine-1-carbonyl)phenyl)quinolin-3-yl)-N, 2-dimethylpropanamide], for which the IC50 in experiment [1] (setting [3]) and in experiment [2] (setting [4]) was < 500 nM in each case.

As to `Cc1ccccc1-c1ccc2nc(N)c(CC(C)C(=O)N[C@H](C)C3CCCCC3)cc2c1` (stereo partly drawn) [Example 47, 3-(2-amino-6-o-tolylquinolin-3-yl)-N-((R)-1-cyclohexylethyl)-2-methylpropanamide], the values for the IC50 in experiment [1] (setting [3]) and in experiment [2] (setting [4]) were 1000 to 5000 nM and < 500 nM, respectively.

Turning to `CCCCOc1ccccc1-c1ccc2nc(N)c(CC(C)C(=O)NCC3CCCCC3)cc2c1` (stereo not drawn) [Example 103, 3-(2-amino-6-(2-butoxyphenyl)quinolin-3-yl)-N-(cyclohexylmethyl)-2-methylpropanamide], the values for the IC50 in experiment [1] (setting [3]), in experiment [2] (setting [4]) and in experiment [2] (setting [5]) were < 500 nM, < 500 nM and < 50 nM, respectively.

On to “3-(2-amino-6-(2-methyl-6-(1-pyrrolidinylcarbonyl)phenyl)-3-quinolinyl)-N-(2,2-dimethyltetrahydro-2H-pyran-4-yl)-2-methylpropanamide [Example 145]”, for which the IC50 in experiment [1] (setting [6]) and in experiment [2] (setting [4]) was < 500 nM each time.

Consider “3-(3-amino-7-o-tolylnaphthalen-2-yl)-N-(1-phenylethyl)propanamide [Example 30]”, for which the results for the IC50 in experiment [1] (setting [6]) and in experiment [2] (setting [4]) were 1000 to 5000 nM and < 500 nM, respectively.

As to `Cc1ccccc1-c1ccc2nc(N)c(CCC(=O)N[C@H](C)c3cccnc3)cc2c1` [Example 78, 3-(2-amino-6-o-tolylquinolin-3-yl)-N-((R)-1-(pyridin-3-yl)ethyl)propanamide], the IC50 in experiment [1] (setting [6]) is > 5000 nM; in experiment [2] (setting [4]), 1000 to 5000 nM.

Regarding `COc1ccccc1[C@@H](C)NC(=O)[C@H](C)Cc1cc2cc(-c3ccccc3C)ccc2nc1N` [Example 74, (R)-3-(2-amino-6-o-tolylquinolin-3-yl)-N-((R)-1-(2-methoxyphenyl)ethyl)-2-methylpropanamide], the figures for the IC50 in experiment [1] (setting [3]) and in experiment [2] (setting [4]) were > 5000 nM and 1000 to 5000 nM, respectively.

For the compound `CC(Cc1cc2cc(-c3ccccc3C#N)ccc2nc1N)C(=O)NC1CCOC(C)(C)C1` (stereo not drawn) [Example 142, 3-(2-amino-6-(2-cyanophenyl)-3-quinolinyl)-N-(2,2-dimethyltetrahydro-2H-pyran-4-yl)-2-methylpropanamide], the IC50 in experiment [1] (setting [3]) and in experiment [2] (setting [4]) was < 500 nM in each case.

As to “3-(3-amino-7-o-tolylnaphthalen-2-yl)-N-(2,3-dihydro-1H-inden-1-yl)propanamide [Example 57]”, the IC50 in experiment [1] (setting [6]) is 1000 to 5000 nM; in experiment [2] (setting [4]), < 500 nM.

Consider `Cc1ccccc1-c1ccc2nc(N)c(CCC(=O)NCCC3CCCCC3)cc2c1` [Example 24, 3-(2-amino-6-o-tolylquinolin-3-yl)-N-(2-cyclohexylethyl)propanamide], for which the IC50 in experiment [1] (setting [3]) and in experiment [2] (setting [4]) was < 500 nM throughout.

Regarding `CC(Cc1cc2cc(-c3cccc(Cl)c3)ccc2nc1N)C(=O)NC1CCOC(C)(C)C1` (stereo not drawn) [Example 169, 3-(2-amino-6-(3-chlorophenyl)-3-quinolinyl)-N-(2,2-dimethyltetrahydro-2H-pyran-4-yl)-2-methylpropanamide], the IC50 in experiment [1] (setting [3]) was < 500 nM; in experiment [1] (Homo sapiens, HEK293, bound stated in text, read-out: IC50 value in the BACE cell-based in-vitro assay), < 100 nM; in experiment [2] (setting [4]), < 500 nM.

Regarding `CCC(Cc1cc2cc(-c3ccccc3C)ccc2nc1N)C(=O)Nc1ccccc1F` (stereo not drawn) [Example 50, 2-((2-amino-6-o-tolylquinolin-3-yl)methyl)-N-(2-fluorophenyl)butanamide], the values for the IC50 in experiment [1] (setting [3]) and in experiment [2] (setting [4]) were > 5000 nM and < 500 nM, respectively.

`Cc1cccnc1-c1ccc2nc(N)c(CC(C)C(=O)NCCC(C)C)cc2c1` (stereo not drawn) [Example 109, 3-(2-amino-6-(3-methylpyridin-2-yl)quinolin-3-yl)-N-isopentyl-2-methylpropanamide]: the IC50 in experiment [1] (setting [3]) and in experiment [2] (setting [4]) was < 500 nM each time.

As to `Nc1nc2ccc(-c3ccccc3)cc2cc1CCC(=O)NCC1CCCCC1` [Example 45, 3-(2-amino-6-phenylquinolin-3-yl)-N-(cyclohexylmethyl)propanamide], the IC50 in experiment [1] (setting [3]) was > 5000 nM; in experiment [2] (setting [4]) it was 500 to 1000 nM.

For `Cc1ccccc1-c1ccc2nc(N)c(CCCNC(=O)C3CCCCC3)cc2c1` [Example 48, N-(3-(2-amino-6-o-tolylquinolin-3-yl)propyl)cyclohexanecarboxamide], the IC50 is 1000 to 5000 nM in experiment [1] (setting [3]) and < 500 nM in experiment [2] (setting [4]).

The values above are taken from patent publication US9296698B2, “Amino heteroaryl compounds as beta-secretase modulators and methods of use” (Amgen Inc., priority 2009, dated 2016).
